Test results taken from US12269816B2, “Benzothiophene compound, preparation method therefor and use thereof” (SICHUAN KELUN-BIOTECH BIOPHARMACEUTICAL CO., LTD., priority 2019, dated 2025).

How the values were obtained:
[1] = tested on: STING and its downstream proteins TBK1 and IRF3 in THP-1 cells; experiment: Western blotting of phosphorylation of STING signal pathway proteins in human THP-1 cells; assay type: cell-based; details: 3 hours, protein blotting, FIGS. 1-5, result in words
Description: (§1) In this experiment, the changes in the phosphorylation levels of STING and its downstream proteins TBK1 (TANK-binding kinase 1) and IRF3 (interferon regulatory factor 3) were detected by protein blotting to evaluate the agonistic effect of the test compounds on the STING signal pathway at the cellular level.
The THP-1 cells in the logarithmic phase were centrifuged, and resuspended in a cell culture solution to a density of […]. The cell suspension was inoculated into a 12-well cell culture plate (Corning) at 0.5 mL/well. The compound to be tested was diluted with a cell culture solution to 2× working solution concentration (control compounds 1 and 2: 60 μM; compounds 1 and 3: 0.6 μM, 6 μM, and 60 μM; compounds 2, 4, 6 and 8: 6 μM, 20 μM, and 60 μM). 0.5 mL of the diluted solution of the compound was added into a 12-well plate (500 μl of the culture solution containing 2% DMSO was added into the negative control well), and the plate was incubated in a cell incubator for 3 hours. After the incubation, the cells were collected by centrifugation, lysed with 60 μL cell lysis buffer (CST) for 30 minutes, and centrifuged at 12,000 rpm for 15 minutes. The supernatant was collected to determine the protein concentration, and then an appropriate amount of 5× protein loading buffer was added. The mixture was heated at 95° C. for 10 minutes to prepare a protein electrophoresis sample. Finally protein blotting was performed to detect the phosphorylation level of the corresponding protein. The primary antibodies used in the protein blotting were purchased from CST: STING (D2P2F) rabbit mAb, Phospho-STING (Ser366) rabbit mAb, Phospho-IRF3 (Ser396) (D601M) rabbit mAb, IRF3 (D83B9) rabbit mAb, TBK1/NAK (D1B4) rabbit mAb, Phospho-TBK1/NAK (Ser172) (D52C2) XP® rabbit mAb, and GAPDH (D16H11) rabbit mAb; and the secondary antibody horseradish peroxidase-conjugated goat anti-rabbit IgG (H+L) was purchased from Zsgb-bio.

[2] = tested on: STING-mediated interferon (IFN) signal reporter gene in THP1-Blue™ ISG cells; experiment: STING-mediated interferon (IFN) signal SEAP reporter gene assay in THP1-Blue ISG cells; assay type: cell-based, human
Description: In this experiment, the activity of the SEAP (secreted embryonic alkaline phosphatase) reporter gene regulated by the IFN regulatory factor (interferon regulatory factor) was detected in the THP1-Blue™ ISG cells (InvivoGen) to evaluate the agonistic effect of the compounds to be tested on the STING-mediated IFN signal pathway at the cellular level.
The THP1-Blue™ ISG cells (InvivoGen) in the logarithmic phase were centrifuged, and resuspended in a cell culture solution to a density of 2×10^6 cells/ml. The cell suspension was inoculated in a 96-well cell culture plate (Corning) at 50 μL/well. The mother liquor of the compound to be tested was gradiently diluted with a cell culture solution to obtain a 2× working concentration diluted solution (control compounds 1 and 2 were diluted at a 3-fold gradient: 200, 66.67, 22.22, 7.41, 2.47, 0.82, 0.27 and 0 μM; compounds 1, 2, 4, 6, 8, and 23 were diluted at a 8-fold gradient: 60, 7.5, 0.94, 0.12, 0.015, 0.0018, 0.00023 and 0 μM; and compounds 3 and 5 were diluted at a 10-fold gradient: 10, 1, 0.1, 0.01, 0.001, 0.0001, 0.00001 and 0 μM). The 2× working concentration diluted solution of the compound was added into a 96-well plate (50 μl of the culture solution containing 2% DMSO was added into the negative control well) at 50 μL/well. The culture plate was then placed in a cell incubator, and incubated for 16 h. After the cell incubation, 10 μL of the cell culture supernatant was transferred to a 96-well plate, and a QUANTI-Blue (InvivoGen) solution was added at 90 μL/well. The cells were incubated at 37° C. for 3 h. The absorbance at 620 nm (OD620nm) was read with a microplate reader.
In the table, EC50 refers to the concentration of a compound when ODM620nm value generated by stimulation of the compound reaches half of Emax; and Emax refers to the highest OD620nm value generated by stimulation of the compound.

[3] = tested on: STING and its downstream proteins TBK1 and IRF3 in Raw264.7 cells; experiment: Western blotting of phosphorylation of STING signal pathway proteins in mouse Raw264.7 cells; assay type: cell-based; details: 3 hours, protein blotting, FIGS. 6-7, result in words
Description: as §1
The Raw264.7 cells in the logarithmic phase were centrifuged, and resuspended in a cell culture solution to a density of 1.6×10^6 cells/mL. The cell suspension was inoculated into a 6-well cell culture plate (Corning) at 1 mL/well. The compound to be tested was diluted with a cell culture solution to 2× working solution concentration (control compounds 1 and 2: 60 μM; compound 8: 0.6 μM, 6 μM, and 60 μM; compounds 2, 4 and 6: 6 μM, 20 μM, and 60 μM). 1 mL of the diluted solution of the compound was added into a 6-well plate (1 mL of the culture solution containing 2% DMSO was added into the negative control well). The plate was placed in a cell incubator, and incubated for 3 hours. After the incubation, the cells were collected by centrifugation, lysed with 60 μL cell lysis buffer (CST) for 30 minutes, and centrifuged at 12000 rpm for 15 minutes. The supernatant was collected to determine the protein concentration, and then an appropriate amount of 5× protein loading buffer was added. The mixture was heated at 95° C. for 10 minutes to prepare a protein electrophoresis sample. Finally, protein blotting was performed to detect the phosphorylation level of the corresponding protein. The primary antibodies used in the protein blotting were purchased from CST: STING (D2P2F) rabbit mAb, Phospho-STING (Ser365) rabbit mAb, Phospho-IRF3 (Ser396) (D601M) rabbit mAb, IRF3 (D83B9) rabbit mAb, TBK1/NAK (D1B4) rabbit mAb, Phospho-TBK1/NAK (Ser172) (D52C2) XPV rabbit mAb, GAPDH (D16H11) rabbit mAb; and the secondary antibody horseradish peroxidase-conjugated goat anti-rabbit IgG (H+L) was purchased from Zsgb-bio.

EC50 ([2]; Homo sapiens, 16 h incubation, SEAP reporter read at OD620nm): 457 nM
Compound: COc1cc2cc(C(=O)CCC(=O)O)sc2cc1OCCCOc1cc2sc(C(=O)N(C)CCC(=O)O)cc2cc1OC [Compound 2, 4-(6-(3-((2-((2-carboxyethyl)(methyl)carbamoyl)-5-methoxybenzo[b]thiophen-6-yl)oxy)propoxy)-5-methoxybenzo[b]thiophen-2-yl)-4-oxobutanoic acid]
agonistic effect on the phosphorylation levels of STING, TBK1 and IRF3 [1]: strong agonistic effects
Emax (OD620nm) ([2]; highest OD620nm value generated by stimulation of the compound, 16 h): 1.82 OD620nm
agonistic effect on the STING-mediated Interferon (IFN) signal pathway ([2]; result in words): strong agonistic effects
agonistic effect on the phosphorylation levels of STING, TBK1 and IRF3 [3]: strong agonistic effects
